ChEMBL document CHEMBL1201862, “PubChem BioAssay data set” (2004)
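Where inhibition never reached the appropriate level, the endpoint shown equals the highest concentration tested. Otherwise, values were interpolated linearly from a five-concentration, 48-hour dose response in 96-well plates. Abbreviation: GI50, concentration required for 50% inhibition of growth.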 Activity calls are given as the source filed them. Cut-off read from the data, not from the text of the source: active = GI50 up to about 1.1 µM and inactive = higher.

Legend:
Assay in all cases: inhibition of tumour cell growth, NCI panel, 48 h
SF-539 = tested on: SF-539
HT-29 = tested on: HT-29
HOP-62 = tested on: HOP-62
COLO 205 = tested on: COLO 205
SK-MEL-5 = tested on: SK-MEL-5
A549 = tested on: A549
LOX IMVI = tested on: LOX IMVI
A498 = tested on: A498
SF-268 = tested on: SF-268
SNB-75 = tested on: SNB-75
NCI-H522 = tested on: NCI-H522
SK-MEL-28 = tested on: SK-MEL-28
OVCAR-4 = tested on: OVCAR-4
KM12 = tested on: KM12
SW-620 = tested on: SW-620

Measured: GI50

COC(=O)N1[C@H]2Cc3c(OC)c(C)c(OC)c(OC)c3[C@@H]1/C(=C\c1cc(OC)c(OC)c(C)c1OC)N(Cc1ccccc1)C2=O
inactive: SF-539 > 100 µM | HT-29 45.1 µM | HOP-62 74.1 µM | COLO 205 13.8 µM | SK-MEL-5 21.8 µM | A549 40.8 µM | LOX IMVI 30.5 µM | A498 > 100 µM | SF-268 78.2 µM | SNB-75 67.5 µM | NCI-H522 5.7 µM | SK-MEL-28 > 100 µM | OVCAR-4 6.7 µM | KM12 27.4 µM

COC1=CC(=O)C2C(C1=O)C(c1ccc(Cl)cc1)[C@@H]2C (stereo partly specified)
inactive: SF-539 22.8 µM | HT-29 > 100 µM | HOP-62 39.1 µM | SW-620 27.4 µM | COLO 205 35 µM | SK-MEL-5 19.5 µM | A549 34 µM | LOX IMVI 22.4 µM | A498 58.9 µM | SF-268 33 µM | SNB-75 17.4 µM | NCI-H522 15.2 µM | SK-MEL-28 28.9 µM | OVCAR-4 42.4 µM | KM12 47.2 µM

CCOC(=O)C1Oc2ccc([N+](=O)[O-])c3c2C1(O)CCC3 (stereo unspecified)
inactive: SF-539 > 100 µM | HT-29 > 100 µM | HOP-62 > 100 µM | SW-620 > 100 µM | COLO 205 > 100 µM | SK-MEL-5 > 100 µM | A549 > 100 µM | LOX IMVI > 100 µM | A498 56.2 µM | SF-268 > 100 µM | SNB-75 > 100 µM | NCI-H522 > 100 µM | SK-MEL-28 > 100 µM | OVCAR-4 > 100 µM | KM12 > 100 µM

O=NN(CCCl)C(=O)N[C@H]1CC[C@@H](C(=O)O)CC1
inactive: SF-539 29.6 µM | HT-29 > 100 µM | HOP-62 83 µM | SW-620 > 76.6 µM | COLO 205 > 100 µM | SK-MEL-5 > 100 µM | A549 89.7 µM | LOX IMVI 45.1 µM | A498 > 100 µM | SF-268 32.8 µM | SNB-75 > 72.3 µM | NCI-H522 23 µM | SK-MEL-28 > 100 µM | OVCAR-4 > 100 µM | KM12 > 100 µM

CC(C)(C)OC(=O)NC(CO)c1cccc(OCc2ccccc2)c1 (stereo unspecified)
inactive: SF-539 > 100 µM | HT-29 > 100 µM | HOP-62 > 82.4 µM | SW-620 > 90.4 µM | COLO 205 47.3 µM | SK-MEL-5 28.2 µM | A549 42.8 µM | LOX IMVI 49 µM | A498 > 87.9 µM | SF-268 > 100 µM | SNB-75 > 100 µM | NCI-H522 46 µM | SK-MEL-28 > 100 µM | OVCAR-4 99.8 µM | KM12 > 100 µM

O=C(c1ccccc1)C(c1ccccc1)C1(O)C(=O)Nc2c(Cl)ccc(Cl)c21 (stereo unspecified)
inactive: SF-539 20.3 µM | HT-29 19.9 µM | HOP-62 21.4 µM | SW-620 16.7 µM | COLO 205 22.2 µM | SK-MEL-5 18.2 µM | A549 26.1 µM | LOX IMVI 11.8 µM | A498 25.3 µM | SF-268 21.9 µM | SNB-75 16.8 µM | NCI-H522 18.5 µM | SK-MEL-28 18.7 µM | OVCAR-4 3.73 µM | KM12 18.2 µM

COC(=O)c1cc(Br)c(Br)n1C
inactive: SF-539 > 100 µM | HT-29 > 100 µM | HOP-62 > 100 µM | SW-620 > 100 µM | COLO 205 > 100 µM | SK-MEL-5 > 100 µM | A549 > 100 µM | LOX IMVI > 100 µM | A498 > 100 µM | SF-268 > 100 µM | SNB-75 > 100 µM | NCI-H522 39.4 µM | SK-MEL-28 > 100 µM | OVCAR-4 > 100 µM | KM12 > 100 µM

Nc1ccc(C(=O)N/C(=C\c2cccc([N+](=O)[O-])c2)c2nc3c4c(ccc3[nH]2)C(=O)c2ccccc2C4=O)cc1
inactive: SF-539 13.8 µM | HT-29 62.5 µM | HOP-62 > 100 µM | SW-620 73.5 µM | COLO 205 > 100 µM | SK-MEL-5 57.4 µM | A549 18.6 µM | LOX IMVI 15.1 µM | A498 15.5 µM | SF-268 2.94 µM | SNB-75 1.76 µM | NCI-H522 4.41 µM | SK-MEL-28 30.3 µM | OVCAR-4 15 µM

Cc1nn2c(=O)n(-c3cccc(-n4nnc5c(-c6ccccc6)c(C)nn5c4=O)c3C)nnc2c1-c1ccccc1
inactive: SF-539 24.4 µM | HT-29 35.7 µM | HOP-62 97.7 µM | SW-620 20.6 µM | COLO 205 17.5 µM | SK-MEL-5 16.6 µM | A549 33.3 µM | LOX IMVI 27.7 µM | A498 83.6 µM | SF-268 46 µM | SNB-75 37.4 µM | NCI-H522 15.5 µM | OVCAR-4 15.6 µM | KM12 > 10 µM

CC1=C(C#N)C(N)=C2C(C)=C(C#N)C(N)=C12
inactive: SF-539 > 100 µM | HT-29 > 100 µM | HOP-62 > 100 µM | SW-620 > 100 µM | COLO 205 > 100 µM | SK-MEL-5 > 100 µM | A549 > 100 µM | LOX IMVI > 100 µM | A498 > 100 µM | SF-268 > 100 µM | SNB-75 > 100 µM | NCI-H522 > 100 µM | OVCAR-4 > 100 µM | KM12 > 100 µM
